Data: patent publication US10188737B2, “Stabilized pharmaceutical composition” (ASTELLAS PHARMA INC., priority 2015, dated 2019)

How the values were obtained:
[1] = Water activity value of pharmaceutical additives, humidity conditions versus dry state; type: physicochemical; details: N = 3; for Water activity value, Opened / Water activity value, Sealed: additive alone; for Water activity value, Opened: 25° C. and 60% RH (opened) for 3 days; for Water activity value, Sealed: in bottles at 25° C. for 3 days in the presence of a desiccant; for Water activity value, Difference: opened minus sealed
Description: A water activity meter (AQUA LAB Series 4TE (AQUA LAB)) was used to measure the water activity value of each pharmaceutical composition (including a capsule shell) at 25° C.
Pharmaceutical additives (5000 mg each) used in Examples 4 to 11 and Comparative Examples 1 to 2 were allowed to stand in bottles (30 mL) at 25° C. for 3 days in the presence of a desiccant (2 g), and the water activity value was measured under the same conditions as those of Experimental Example 1. Further, the same samples were allowed to stand in bottles under storage conditions of 25° C. and 60% RH (opened) for 3 days, and the water activity value was measured under the same conditions as those of Experimental Example 1
The difference between the water activity value after the storage in the opened state and the water activity value after the storage in the sealed state is summarized in Table 7.

[2] = test system: epidermal growth factor receptor (EGFR) mutant kinase; details: disclosed in Patent literature 1 (WO 2013/108754); cited from earlier work
[3] = Stability of mixture with milled lactose hydrate in capsules, sealed plastic bottles, 25° C. and 60% RH, related substance (HPLC); type: physicochemical; details: dimer of compound A (RRT about 1.34)
Description: (§1) The amounts of generated related substances were measured by a high performance liquid chromatographic method (an HPLC method). The amount of a related substance is calculated by measuring the peak area of each related substance contained in a pharmaceutical composition by the HPLC method, and dividing the peak area of a dimer of compound A (a related substance detected at a relative retention time of about 1.34) by the total peak area of all related substances, including compound A or a pharmaceutically acceptable salt thereof and the dimer of compound A. • Measurement wavelength: 210 nm • Column: YMC-Triart C18 (4.6 mm×150 mm, 3 μm) • Column temperature: a constant temperature around 40° C. • Mobile phase: A mixed solution of 45 mM perchloric acid aqueous solution and acetonitrile • Flow rate: about 1.2 mL/min. • Injection amount: 10 μg (corresponding to compound A) (Measurement of Water Activity)
After 1.171 mg of compound A monomethanesulfonate and 98.829 mg of milled lactose hydrate (Pharmatose 200 M, DFE Pharma) were mixed, the obtained mixture was filled into hypromellose capsules. […] After the storage, the amount of a related substance (the amount of a dimer of compound A at a relative retention time of about 1.34) was measured under the same conditions as those of Experimental Example 1. […]

[4] = Stability of mixtures with pharmaceutical additives, sealed bottles in aluminum bags, 25° C. or 40° C., related substance (HPLC); type: physicochemical; details: dimer of compound A (RRT about 1.34), N = 2, values less than 0.05% (quantitative limit) are reference values
Description: as §1
The mixtures obtained in Examples 4 to 11 and Comparative Examples 1 to 2, as well as compound A monomethanesulfonate, were put into plastic bottles. […] After the storage, the amount of a related substance (the amount of a dimer of compound A at a relative retention time of about 1.34) was measured under the same conditions as those of Experimental Example 1. […]

| Structure (SMILES) | Water activity value, Opened [1] | Water activity value, Sealed [1] | Water activity value, Difference [1] | Amount of related substance, 25° C. · 60% RH After 1 month [3] [%] | Amount of related substance, 25° C., After 1 month ([4]; 25° C.) [%] | Amount of related substance, 40° C., After 1 month ([4]; 40° C.) [%] | inhibitory action on an epidermal growth factor receptor (EGFR) mutant kinase [2] |
| --- | --- | --- | --- | --- | --- | --- | --- |
| O.OC[C@H]1O[C@@H](O[C@H]2[C@H](O)[C@@H](O)C(O)O[C@@H]2CO)[C@H](O)[C@@H](O)[C@H]1O (stereo partly shown) [Lactose hydrate] | 0.46 | 0.30 | 0.16 |  |  |  |  |
| C=CC(=O)N1CC[C@@H](Oc2nc(Nc3ccc(N4CCC(N5CCN(C)CC5)CC4)cc3)c(C(N)=O)nc2CC)C1 [compound A, 5-{[(3R)-1-Acryloylpyrrolidin-3-yl]oxy}-6-ethyl-3-({4-[4-(4-methylpiperazin-1-yl)piperidin-1-yl]phenyl}amino)-pyrazine-2-carboxamide] |  |  |  |  |  |  | confirmed |
| C=CC(=O)N1CC[C@@H](Oc2nc(Nc3ccc(N4CCC(N5CCN(C)CC5)CC4)cc3)c(C(N)=O)nc2CC)C1.CS(=O)(=O)O [Compound A monomethanesulfonate (alone), 5-{[(3R)-1-acryloylpyrrolidin-3-yl]oxy}-6-ethyl-3-({4-[4-(4-methylpiperazin-1-yl)piperidin-1-yl]phenyl}amino)-pyrazine-2-carboxamide monomethanesulfonate] |  |  |  | 0.44 | 0.03 | 0.03 |  |

The next lines start with results.

| Water activity value, Opened [1] | Water activity value, Sealed [1] | Water activity value, Difference [1] | Amount of related substance, 25° C. · 60% RH After 1 month [3] [%] | Amount of related substance, 25° C., After 1 month ([4]; 25° C.) [%] | Amount of related substance, 40° C., After 1 month ([4]; 40° C.) [%] | Structure (SMILES) | inhibitory action on an epidermal growth factor receptor (EGFR) mutant kinase [2] |
| --- | --- | --- | --- | --- | --- | --- | --- |
| 0.45 | 0.35 | 0.10 |  |  |  | OC[C@@H](O)[C@@H](O)[C@H](O)[C@H](O)CO [Mannitol] |  |
| 0.43 | 0.38 | 0.05 |  |  |  | OC[C@H]1O[C@@](CO)(O[C@H]2O[C@H](CO)[C@@H](O)[C@H](O)[C@H]2O)[C@@H](O)[C@@H]1O [Sucrose] |  |
| 0.40 | 0.32 | 0.08 |  |  |  | OC[C@H]1O[C@H](O[C@H]2O[C@H](CO)[C@@H](O)[C@H](O)[C@H]2O)[C@H](O)[C@@H](O)[C@@H]1O [Trehalose] |  |
